# Reference: patent US7223772B1, “Pyrazolopyridine derivatives as selective cox-2 inhibitors” (SmithKline Beecham Corporation, priority 1998, dated 2007)
# Tests used:
# human COX-2 = biological target: T1, human COX-2 (Homo sapiens, UniProt P35354); experiment: Inhibition of PGE2 release in COS cells stably transfected with human COX-2; type: cell-based; conditions: COS cells transfected with human COX-2, 30 μM arachidonic acid
# T1 construct: expressed in transfected cells; host or cells: COS cells (stably transfected)
# T1 sequence (P35354 18-604): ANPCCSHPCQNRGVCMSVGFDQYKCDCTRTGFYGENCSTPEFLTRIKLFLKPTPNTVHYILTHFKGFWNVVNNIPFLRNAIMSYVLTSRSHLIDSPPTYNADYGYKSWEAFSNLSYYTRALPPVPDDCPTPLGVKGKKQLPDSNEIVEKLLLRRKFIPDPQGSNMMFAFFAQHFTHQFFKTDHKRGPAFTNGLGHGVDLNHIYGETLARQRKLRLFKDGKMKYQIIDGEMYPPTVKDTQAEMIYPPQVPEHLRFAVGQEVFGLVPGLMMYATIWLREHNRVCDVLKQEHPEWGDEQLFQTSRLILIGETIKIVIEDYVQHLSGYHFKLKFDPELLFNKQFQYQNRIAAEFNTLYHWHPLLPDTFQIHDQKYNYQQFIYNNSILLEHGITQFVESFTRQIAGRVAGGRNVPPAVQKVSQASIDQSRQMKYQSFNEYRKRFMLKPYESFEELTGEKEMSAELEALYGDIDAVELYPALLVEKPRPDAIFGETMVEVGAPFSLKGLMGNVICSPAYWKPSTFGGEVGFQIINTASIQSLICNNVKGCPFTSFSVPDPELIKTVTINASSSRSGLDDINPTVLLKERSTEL
# Description: (§1) Inhibitory activity against human COX-1 and COX-2 was assessed in COS cells which had been stably transfected with cDNA for human COX-1 and human COX-2. 24 Hours prior to experiment, COS cells were transferred from the 175 cm^2 flasks in which they were grown, onto 24-well cell culture plates using the following procedure. The incubation medium (Dulbecco's modified eagles medium (DMEM) supplemented with heat-inactivated foetal calf serum (10%v/v), penicillin (100 lU/ml), streptomycin (100 μg/ml) and geneticin (600 μg/ml)) was removed from a flask of confluent cells (1 flask at confluency contains approximately 1×10^7 cells). 10 ml of phosphate buffered saline (PBS) was added to the flask to wash the cells. Having discarded the PBS, cells were then rinsed in 10 ml trypsin for 20 seconds, after which the trypsin was removed and the flask placed in an incubator (37°) for 1-2 minutes until cells became detached from the flask. The flask was then removed from the incubator and cells resuspended in 10 ml of fresh incubation medium. The contents of the flask was transferred to a 250 ml sterile container and the volume of incubation medium subsequently made up to 100 ml. 1 ml cell suspension was pipetted into each well of 4×24-well cell culture plates. The plates were then placed in an incubator (37° C., 95% air/5% CO2) overnight. If more than 1 flask of cells were required, the cells from flasks were combined before being dispensed into the 24-well plates.
# (§2) Following the overnight incubation, the incubation medium was completely removed from the 24-well cell culture plates and replaced with 250 μl fresh DMEM (37° C.). The test compounds were made up to 250× the required test concentration in DMSO and were added to the wells in a volume of 1 μl. Plates were then mixed gently by swirling and then placed in an incubator for 1 hour (37° C., 95% air/5% CO2). Following the incubation period, 10 μl of arachidonic acid (750 μM) was added to each well to give a final arachidonic acid concentration of 30 μM. Plates were then incubated for a further 15 minutes, after which the incubation medium was removed from each well of the plates and stored −20° C., prior to determination of prostaglandin E2 (PGE2) levels using enzyme immunoassay. The inhibitory potency of the test compound was expressed as an IC50 value, which is defined as the concentration of the compound required to inhibit the PGE2 release from the cells by 50%. The selectivity ratio of inhibition of COX-1 versus COX-2 was calculated by comparing respective IC50 values. The following IC50 values for inhibition of COX-2 and COX-1 were obtained for compounds of the invention: […]
# human COX-1 = biological target: T2, human COX-1 (Homo sapiens, UniProt P23219); experiment: Inhibition of PGE2 release in COS cells stably transfected with human COX-1; type: cell-based; conditions: COS cells transfected with human COX-1, 30 μM arachidonic acid
# T2 construct: expressed in transfected cells; host or cells: COS cells (stably transfected)
# T2 sequence (P23219 24-599): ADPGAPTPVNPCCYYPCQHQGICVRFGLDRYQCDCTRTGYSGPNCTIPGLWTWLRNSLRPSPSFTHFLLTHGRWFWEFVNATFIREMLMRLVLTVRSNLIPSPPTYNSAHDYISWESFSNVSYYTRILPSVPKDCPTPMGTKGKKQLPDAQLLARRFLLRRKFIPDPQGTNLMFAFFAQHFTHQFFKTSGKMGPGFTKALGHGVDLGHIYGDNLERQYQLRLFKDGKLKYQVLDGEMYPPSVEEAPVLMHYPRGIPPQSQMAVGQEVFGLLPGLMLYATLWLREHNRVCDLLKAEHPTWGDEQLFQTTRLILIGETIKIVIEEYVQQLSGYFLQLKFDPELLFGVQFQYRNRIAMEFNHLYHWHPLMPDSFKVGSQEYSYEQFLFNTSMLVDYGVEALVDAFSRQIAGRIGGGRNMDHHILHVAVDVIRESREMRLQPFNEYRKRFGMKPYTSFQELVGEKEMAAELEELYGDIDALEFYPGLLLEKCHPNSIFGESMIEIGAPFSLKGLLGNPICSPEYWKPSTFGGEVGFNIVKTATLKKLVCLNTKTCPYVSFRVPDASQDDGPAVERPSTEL
# Description: as §1, §2
SMILES,IC50 (human COX-2),IC50 (human COX-1)
"CS(=O)(=O)c1ccc(-c2c(-c3ccc(F)cc3)nn3cc(C(F)(F)F)ccc23)cc1 [Example 5, 2-(4-Fluoro-phenyl)-3-(4-methanesulfonyl-phenyl)-6-trifluoromethyl-pyrazolo[1,5-a]pyridine]",26 nM,> 100000 nM
"NS(=O)(=O)c1ccc(-c2c(-c3ccc(F)cc3)nn3cc(C(F)(F)F)ccc23)cc1 [Example 4, 4-[2-(4-Fluoro-phenyl)-6-trifluoromethyl-pyrazolo[1,5-a]pyridin-3-yl]benzenesulfonamide]",34 nM,> 100000 nM
"NS(=O)(=O)c1ccc(-c2c(-c3cccc(F)c3)nn3cc(C(F)(F)F)ccc23)cc1 [Example 1(vii), 4-[2-(3-Fluoro-phenyl)-6-trifluoromethyl-pyrazolo[1,5-a]pyridin-3-yl]benzenesulfonamide]",34 nM,> 100000 nM
"CCOc1ccc(-c2nn3cc(C(F)(F)F)ccc3c2-c2ccc(S(N)(=O)=O)cc2)cc1 [Example 3, 4-[2-(4-Ethoxy-phenyl)-6-trifluoromethyl-pyrazolo[1,5-a]pyridin-3-yl]benzenesulfonamide]",34 nM,32200 nM
"CS(=O)(=O)c1ccc(-c2c(-c3cccc(F)c3)nn3cc(C(F)(F)F)ccc23)cc1 [Example 2, 2-(3-Fluoro-phenyl)-3-(4-methanesulfonyl-phenyl)-6-trifluoromethyl-pyrazolo[1,5-a]pyridine]",548 nM,> 100000 nM

# The remaining lines, values ahead:
IC50 (human COX-2),IC50 (human COX-1),SMILES
30 nM,> 100000 nM,"CS(=O)(=O)c1ccc(-c2c(-c3ccccc3)nn3cc(C(F)(F)F)ccc23)cc1 [Example 7, 3-(4-Methanesulfonyl-phenyl)-2-phenyl-6-trifluoromethyl-pyrazolo[1,5-a]pyridine]"
31 nM,26300 nM,"NS(=O)(=O)c1ccc(-c2c(-c3ccccc3)nn3cc(C(F)(F)F)ccc23)cc1 [Example 6, 4-(2-Phenyl-6-trifluoromethyl-pyrazolo[1,5-a]pyridin-3-yl)-benzenesulfonamide]"
